Measurements published in patent publication US11352358B2, “FXR agonist” (XUANZHU BIOPHARMACEUTICAL CO., LTD., priority 2017, dated 2022).

Columns and labels:
SHP mRNA in AML12 cells = experiment: Relative expression of SHP mRNA in AML12 cells, EC50 (Experimental Example 4); assay type: cell-based; conditions: Mus musculus, 24 hrs
Description: compounds of the present invention (for their chemical names and preparation methods, see the preparation example for each compound).
AML12 cells: mouse liver cells.
Control: compound 1-1B with a structure shown as follows, prepared according to a prior art method (for detailed information, see patent application WO2012087519A1).
Cells were digested with pancreatin and collected, and the concentration of the cells was determined; according to the counting result, the cells were resuspended to a density of 7.5×10^4 cells/mL; 1 mL of the cell suspension was inoculated in each well of a 12-well cell culture plate; and the culture plate was placed in an incubator and cultured under the conditions of 37° C. and 5% CO2 for 24 hrs.
The compound were diluted to 1000, 200, 8, 1.6, 0.32, 0.128, 0.0256 and 0.00512 μM with DMSO. Compound solutions of different concentrations obtained in the previous step were further diluted by 1000 times with media to obtain working solutions, and a medium containing 0.1% of DMSO was adopted as a control group. The cell culture plate was taken out from the incubator, the medium was removed, and the working solutions and the control medium were added. The culture plate was placed back into the incubator and cultured under the conditions of 37° C. and 5% CO2 for 24 hrs.
after treatment for 24 hrs, the cell culture plate was taken out from the incubator, and the medium was removed from the plate; the cells were rinsed three times with pre-cooled (4° C.) PBS (phosphate buffer solution); and 200 μL of pancreatin (preheated to 37° C.) was added to each well, and the plate was then gently shaken such that the pancreatin could evenly cover the plate bottom. The culture plate was then placed back into the incubator and incubated until the cells were separated from the plate bottom. 1 mL of medium was added to terminate digestion. […]

[1] = Liver microsome metabolism stability, human liver microsome; assay type: in vitro ADME; conditions: 0.5 mg protein/mL, test sample 1 μM, β-NADPH
Description: Test samples: the homemade compounds 1, 2, 4 and 5 of the present invention (for their chemical names and preparation methods, see the preparation example for each compound).
a mixed liver microsomes of SD rat and human both purchased from XenoTech, with batch Nos.: 1410271 (SD rat) and 1410013 (human) respectively, wherein the microsomal protein concentrations both were 20 mg mL^−1;
experimental promoter β-NADPH purchased from Roche (batch No.: 524F0231); and a phosphate buffer solution (pH 7.4) made in the lab.
An appropriate amount of the test sample powder was weighed accurately, and dissolved in an appropriate amount of dimethyl sulfoxide (DMSO) to a concentration of 1 mM; and the solution was then diluted by 20 times with methanol to yield a 50 μM working solution.
(1) According to the proportions in table 3 “Composition of the incubation system for liver microsome metabolism stability experiment” above, for each compound, 6 mL of PBS (100 mM), 0.6 mL of MgCl2 solution (20 mM) and 3.66 mL of H2O were made into a mixed solution 1 for the incubation system (not containing the microsomes, the test sample and β-NADPH).
(2) Liver microsomes (20 mg protein/mL) were taken from a refrigerator (−80° C.), and were placed on a thermostatic water bath oscillator (37° C.) and pre-incubated for 3 mins.
(3) For each compound, 1.88 mL of the mixed solution 1 for the incubation system was added with 55 μL of microsomes to obtain a mixed solution 2 for the incubation system (not containing the test sample and β-NADPH).
(4) Sample group (containing the microsomes and D-NADPH): 616 μL of mixed solution 2 for the incubation system was added with 14 μL of the test sample working solution (with a concentration of 50 μM), and with 70 μL of R-NADPH working solution (10 mM). The resulted solution was well mixed, and the resulted solution was then duplicated. The time points of sampling were at 0 min, 5th min, 10th min, 20th min, 30th min and 60th min.
(5) Control group (containing the microsomes, and water instead of D-NADPH): 264 μL of mixed solution 2 for the incubation system was added with 6 μL of the test sample working solution (50 μM), and with 30 μL of water. The resulted solution was well mixed, and the resulted solution was then duplicated. The time points of sampling were at 0 min and 60th min.
(6) 50 μL of sample was taken from an incubating sample tube at each predetermined time point, added to a terminating sample tube (containing 300 μL of cold terminator), and vortexed; and the reaction was terminated.
(7) after 10 mins of vortexing, the solution was centrifuged for 5 mins (12,000 rpm).
(8) 100 μL of supernatant was taken and added with 100 μL of water, and the mixture solution was thoroughly vortexed; and the solution was then analyzed by LC-MS/MS.
Percentages of residual contents were calculated according to the following formula.

## O=C(O)c1ccc2nc(N3C[C@@H]4C[C@H]3C[C@H]4OCc3c(-c4c(Cl)cccc4Cl)noc3C3CC3)sc2c1 [Compound 2-1, 2-((1S, 4S, 5R)-5-((5-cyclopropyl-3-(2,6-dichlorophenyl)isoxazol-4-yl)methoxy)-2-azabicyclo[2.2.1]heptan-2-yl)benzo[d]thiazole-6-carboxylic acid]
SHP mRNA in AML12 cells
  EC50: 0.76 nM
[1]
  Residual content (%) after 60 minutes of incubation: 69%
